# From patent publication US20210393623A1 (Jacobio Pharmaceuticals Co., Ltd., priority 2018, published 2021)
# Target: T1, SHP2 (Homo sapiens, UniProt Q06124)
# T1 sequence (Q06124 1-593): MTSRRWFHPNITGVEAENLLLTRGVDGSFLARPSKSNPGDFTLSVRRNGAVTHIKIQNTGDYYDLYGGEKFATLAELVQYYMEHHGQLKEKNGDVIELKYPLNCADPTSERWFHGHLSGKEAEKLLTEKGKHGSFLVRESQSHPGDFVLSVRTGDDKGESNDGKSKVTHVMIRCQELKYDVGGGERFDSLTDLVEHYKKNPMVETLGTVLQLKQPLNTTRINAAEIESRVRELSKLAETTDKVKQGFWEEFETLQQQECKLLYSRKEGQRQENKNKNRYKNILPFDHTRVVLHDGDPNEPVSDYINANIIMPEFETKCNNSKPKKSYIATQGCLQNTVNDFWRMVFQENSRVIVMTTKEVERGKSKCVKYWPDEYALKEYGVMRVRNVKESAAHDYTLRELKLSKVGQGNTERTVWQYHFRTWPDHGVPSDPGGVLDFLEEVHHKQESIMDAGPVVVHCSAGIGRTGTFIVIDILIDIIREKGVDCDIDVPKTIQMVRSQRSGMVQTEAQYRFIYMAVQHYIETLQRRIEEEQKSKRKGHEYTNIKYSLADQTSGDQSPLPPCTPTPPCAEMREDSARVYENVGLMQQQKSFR
# Experiment: Phosphatase Assay (Single Dose Inhibition)
# Assay type: biochemical
# Conditions: compound at 0.02 μM (20nM); DiFMUP substrate 12 μM; SHP2 0.5 nM activated with dPEG8 peptide; DMSO control set to 100%; triplicate
# Procedure: Phosphatase Assay (Single Dose Inhibition) Assay Protocol: For single dose inhibition assays using 6,8-difluoro-4-methylumbelliferyl phosphate (DiFMUP) as a substrate, SHP2 samples (diluted to 0.5 nM in reaction buffer) were incubated with dPEG8 peptide for 30 min in reaction buffer[60 mM 3,3-dimethyl glutarate (pH7.2), 75 mM NaCl, 75 mM KCl, and 1 mM EDTA, 0.05% Tween 20, 2mM dithiothreitol (DTT) ] to active the PTP. DMSO [0.5% (v/v)] or compounds (20nM) were added to the mixture and incubated for 30 min at room temperature. Reactions were initiated by the addition of DiFMUP (12 μM; total reaction volume of 100 μL), and the fluorescence (excitation at 340 nm, emission at 450 nm) of the resulting solutions was measured on a 2104-0020 EnVision Xcite Multilabel Reader (PerkinElmer) after 30min. The experiment is carried out in triplicate. The value for the control sample (DMSO) was set to 100%, and the values for the compound-treated samples were expressed as activity relative to the control sample.
row,inhibition at 0.02 µM [%],SMILES
1,80,"Cc1nc(N2CCC3(CC2)Cc2ncccc2[C@H]3N)cnc1-c1cccc(Cl)c1Cl [Example 2, (S)-1′-(5-(2,3-dichlorophenyl)-6-methylpyrazin-2-yl)-5,7-dihydrospiro[cyclopenta[b]pyridine-6,4′-piperidin]-5-amine]"
2,81,"Cc1nc(N2CCC3(CC2)Cc2ccccc2[C@H]3N)c(C(=O)O)nc1-c1cccc(Cl)c1Cl [Example 3, (S)-3-(1-amino-1,3-dihydrospiro[indene-2,4′-piperidin]-1′-yl)-6-(2,3-dichlorophenyl)-5-methylpyrazine-2-carboxylic acid]"
3,89,"Cc1nc(N2CCC3(CC2)Cc2ccccc2[C@H]3N)c(C(N)=O)nc1-c1cccc(Cl)c1Cl [Example 4, (S)-3-(1-amino-1,3-dihydrospiro[indene-2,4′-piperidin]-1′-yl)-6-(2,3-dichlorophenyl)-5-methylpyrazine-2-carboxamide]"
4,84,"CCOC(=O)c1nc(Sc2ccnc(N)c2Cl)c(C)nc1N1CCC2(CC1)Cc1ccccc1[C@H]2N [Example 5, ethyl (S)-3-(1-amino-1,3-dihydrospiro[indene-2,4′-piperidin]-1′-yl)-6-((2-amino-3-chloropyridin-4-yl)thio)-5-methylpyrazine-2-carboxylate]"
5,89,"Cc1nc(N2CCC3(CC2)Cc2ccccc2[C@H]3N)cnc1Sc1ccnc(N)c1Cl [Example 6, (S)-1′-(5-((2-amino-3-chloropyridin-4-yl)thio)-6-methylpyrazin-2-yl)-1,3-dihydrospiro[indene-2,4′-piperidin]-1-amine]"
6,68,"Nc1nc(N2CCC3(CC2)Cc2ncccc2[C@H]3N)ncc1Sc1ccnc(N)c1Cl [Example 8, (S)-1′-(4-amino-5-((2-amino-3-chloropyridin-4-yl)thio)pyrimidin-2-yl)-5,7-dihydrospiro[cyclopenta[b]pyridine-6,4′-piperidin]-5-amine]"
7,64,"N#Cc1cnc2c(c1)[C@@H](N)C1(CCN(c3ccc(Sc4ccnc(N)c4Cl)cn3)CC1)C2 [Example 15, (S)-5-amino-1′-(5-((2-amino-3-chloropyridin-4-yl)thio)pyridin-2-yl)-5,7-dihydrospiro[cyclopenta[b]pyridine-6,4′-piperidine]-3-carbonitrile]"
8,61,"COc1nccc(Sc2cnc(N3CCC4(CC3)Cc3ccc(SC)cc3[C@H]4N)cn2)c1Cl [Example 19, (S)-1′-(5-((3-chloro-2-methoxypyridin-4-yl)thio)pyrazin-2-yl)-6-(methylthio)-1,3-dihydrospiro[indene-2,4′-piperidin]-1-amine]"
9,68,"CC(C)Nc1nccc(Sc2cnc(N3CCC4(CC3)Cc3ccc(S(C)(=O)=O)cc3[C@H]4N)cn2)c1Cl [Example 21, (S)-1′-(5-((3-chloro-2-(isopropylamino)pyridin-4-yl)thio)pyrazin-2-yl)-6-(methylsulfonyl)-1,3-dihydrospiro[indene-2,4′-piperidin]-1-amine]"
10,85,"Cc1nc(N2CCC3(CC2)Cc2ccccc2[C@H]3N)c(CO)nc1-c1cccc(Cl)c1Cl [Example 23, (S)-(3-(1-amino-1,3-dihydrospiro[indene-2,4′-piperidin]-1′-yl)-6-(2,3-dichlorophenyl)-5-methylpyrazin-2-yl)methanol]"
11,87,"Cc1nc(N2CCC3(CC2)Cc2ccccc2[C@H]3N)c(CO)nc1Sc1ccnc(N)c1Cl [Example 24, (S)-(3-(1-amino-1,3-dihydrospiro[indene-2,4′-piperidin]-1′-yl)-6-((2-amino-3-chloropyridin-4-yl)thio)-5-methylpyrazin-2-yl)methanol]"
12,78,"Cc1nc(N2CCC3(CC2)Cc2ncccc2[C@H]3N)c(Br)nc1-c1cccc(Cl)c1Cl [Example 25, (S)-1′-(3-bromo-5-(2,3-dichlorophenyl)-6-methylpyrazin-2-yl)-5,7-dihydrospiro[cyclopenta[b]pyridine-6,4′-piperidin]-5-amine]"
